Assay results as given in patent publication US20040157837A1, “Combinations for the treatment of fungal infections” (priority 2002, published 2004).

Legend:
[1] = test system: Candida albicans Strain 17; experiment: Anti-proliferation assay, Candida albicans Strain 17; type: cell-based; conditions: STRAIN17, Amphotericin B 0.00 μM (r16), read-out: Percent inhibition of proliferation
From the text: (§1) Using the method described below, we tested the ability of the combination of various concentrations of amphotericin B plus disulfiram to inhibit the proliferation of numerous yeast strains using particle density as an indicator of cell number.
(§2) Two clinical Candida albicans isolates (one triazole-resistant strain and one triazole-susceptible strain) were obtained from the culture collection if the Seattle Biomedical Research Institute (Seattle, Wash.). Additional fungal strains were obtained from the American Type Culture Collection triazole-resistant C. albicans: ATCC MYA-573, C. glabrata: ATCC 90030. Yeast cultures were stored in 15% glycerol at −70° C. Isolates were cultured in growth medium (RPMI 1640; 2% glucose without NaHCO3 and phenol red, buffered with 0.165 M MOPS to pH 7.0) at 35° C. for 24 hours prior to in vitro susceptibility testing. All media reagents were purchased from Sigma Chemical Co. (St. Louis, Mo.).
(§3) The following compounds were used: disulfiram and amphotericin B (both from Sigma Chemical Co.). In the anti-proliferation experiments, Gentian Violet was used as a positive control for antifungal activity. Stock solutions of each compound were prepared in DMSO and stored at −20° C. Prior to use, stock solutions were diluted in RPMI to produce 10× solutions. 10× disulfiram (0-7 μL) and 10× amphotericin B (0-7 μL) were then plated in 40 μL of in 384 well microtiter plates to form a matrix of compound combinations.
(§4) All antifungal susceptibility testing was performed according to document M-27A as published by the National Committee for Clinical Laboratory Standards (Reference Method for Broth Dilution Antifungal Susceptibility Testing of Yeasts (1997), Wayne, Pa.). Briefly, yeast inocula from overnight cultures were standardized to a turbidity equivalent to a 0.5 McFarland Standard using a spectrophotometer at 530 nm, giving rise to a stock solution of 1×10^6 cells/mL. Each yeast suspension was further diluted in growth medium to yield a final inoculum concentration of approximately 4×10^3 cells/mL. Forty microlitres of the inoculum were used to inoculate each well, resulting in a final concentration of 2×10^3 cells/mL. Drug-free controls were included on each plate. Plates were incubated for 16 hours at 32° C. The amount of cell growth was determined by particle density as read on a Nephelometer (BMG Lab Technologies; Durham, N.C.).

Candida albicans MYA 573 = experiment: Anti-proliferation assay, Candida albicans MYA 573; type: cell-based; conditions: MYA573, Amphotericin B 0.00 μM (r16), read-out: Percent inhibition of proliferation
From the text: as §1, §2, §3, §4

[2] = test system: Candida albicans Strain 1; experiment: Anti-proliferation assay, Candida albicans Strain 1; type: cell-based; conditions: STRAIN1, Amphotericin B 0.00 μM (r16), read-out: Percent inhibition of proliferation
From the text: as §1, §2, §3, §4

Candida glabrata = experiment: Anti-proliferation assay, Candida glabrata; type: cell-based; conditions: Nakaseomyces glabratus, Amphotericin B 0.00 μM (r15), read-out: Percent inhibition of proliferation
From the text: as §1, §2, §3, §4

Aspergillus fumigatus = experiment: Anti-proliferation assay, Aspergillus fumigatus; type: cell-based; conditions: Amphotericin B 0.00 μM, read-out: Percent inhibition of proliferation
Protocol: as §1
The Aspergillus fumigatus strain was obtained from the American Type Culture Collection (ATCC 46645). Aspergillus cultures were stored in 15% glycerol at −70° C. Isolates were cultured on Sabouraud glucose (SAB) agar plates at 37° C. for 5 to 7 days. Condidia were collected by addung 5 to 10 mL of sterile saline containing 0.05% Tween 20 to the plates and loosening condidia with a swab. Using a pipette, condidia were collected suspension and placed in a sterile bottle. This was repeated for all plates. After harvesting the suspension was filtered through gauze into a clean, sterile bottle. The turbidity of the supernatants was measured spectrophometrically at 530 nm and the transmission adjusted to 80-82% with PBS (with 0.05% Tween 20) to yield an initial suspension of 1×10^6 CFU/mL.
as §3, §4

[3] = cited from earlier work

In the case of `CCN(CC)C(=S)SSC(=S)N(CC)CC` [Disulfiram, bis(diethylthiocarbamoyl) disulfide], the inhibition at 0.01 µM ([1]; Disulfiram 0.01 μM) is reported as -3.64%, the inhibition at 0.02 µM ([1]; Disulfiram 0.02 μM) is reported as -0.03% and the inhibition at 0.04 µM ([1]; Disulfiram 0.04 μM) is reported as -0.15%. The inhibition at 0.07 µM ([1]; Disulfiram 0.07 μM) was 2.27%, the inhibition at 0.14 µM ([1]; Disulfiram 0.14 μM) was 2.66% and the inhibition at 0.28 µM ([1]; Disulfiram 0.28 μM) was 22.9%. For the same compound, the inhibition at 0.56 µM ([1]; Disulfiram 0.56 μM) was 30.5%, the inhibition at 1.12 µM ([1]; Disulfiram 1.12 μM) was 53.4% and the inhibition at 0.01 µM (Candida albicans MYA 573; Disulfiram 0.01 μM) was -5.62%. For the same compound, the inhibition at 0.02 µM (Candida albicans MYA 573; Disulfiram 0.02 μM) was 1.7%, the inhibition at 0.04 µM (Candida albicans MYA 573; Disulfiram 0.04 μM) was 10.3% and the inhibition at 0.07 µM (Candida albicans MYA 573; Disulfiram 0.07 μM) was 25.2%. The inhibition at 0.14 µM (Candida albicans MYA 573; Disulfiram 0.14 μM) was 39.3%, the inhibition at 0.28 µM (Candida albicans MYA 573; Disulfiram 0.28 μM) was 55.6% and the inhibition at 0.56 µM (Candida albicans MYA 573; Disulfiram 0.56 μM) was 78.3%. The inhibition at 1.12 µM (Candida albicans MYA 573; Disulfiram 1.12 μM) was 95%, the inhibition at 0.01 µM ([2]; Disulfiram 0.01 μM) was 5.3% and the inhibition at 0.02 µM ([2]; Disulfiram 0.02 μM) was 9.08%. The inhibition at 0.04 µM ([2]; Disulfiram 0.04 μM) was 10.1%, the inhibition at 0.07 µM ([2]; Disulfiram 0.07 μM) was 11.7% and the inhibition at 0.14 µM ([2]; Disulfiram 0.14 μM) was 18.2%. The inhibition at 0.28 µM ([2]; Disulfiram 0.28 μM) was 26.9%, the inhibition at 0.56 µM ([2]; Disulfiram 0.56 μM) was 54.5% and the inhibition at 1.12 µM ([2]; Disulfiram 1.12 μM) was 89.6%. The inhibition at 0.01 µM (Candida glabrata; Disulfiram 0.01 μM) was -10.4%, the inhibition at 0.02 µM (Candida glabrata; Disulfiram 0.02 μM) was -1.67% and the inhibition at 0.04 µM (Candida glabrata; Disulfiram 0.04 μM) was 1.52%. The inhibition at 0.07 µM (Candida glabrata; Disulfiram 0.07 μM) was 1.92%, the inhibition at 0.14 µM (Candida glabrata; Disulfiram 0.14 μM) was 2.12% and the inhibition at 0.28 µM (Candida glabrata; Disulfiram 0.28 μM) was 19.6%. For the same compound, the inhibition at 0.56 µM (Candida glabrata; Disulfiram 0.56 μM) was 61.3%, the inhibition at 1.12 µM (Candida glabrata; Disulfiram 1.12 μM) was 88.7% and the inhibition at 0.04 µM (Aspergillus fumigatus; Disulfiram 0.04 μM) was 0.66%. For the same compound, the inhibition at 0.08 µM (Aspergillus fumigatus; Disulfiram 0.08 μM) was -2.93%, the inhibition at 0.16 µM (Aspergillus fumigatus; Disulfiram 0.16 μM) was -2.21% and the inhibition at 0.31 µM (Aspergillus fumigatus; Disulfiram 0.31 μM) was -13.1%. The inhibition at 0.63 µM (Aspergillus fumigatus; Disulfiram 0.63 μM) was -0.75%, the inhibition at 1.25 µM (Aspergillus fumigatus; Disulfiram 1.25 μM) was 6.07% and the inhibition at […] (Aspergillus fumigatus; Disulfiram 2.50 μM) was 14.9%. The inhibition at 5 µM (Aspergillus fumigatus; Disulfiram 5.00 μM) was 31.7%, the inhibition at 10 µM (Aspergillus fumigatus; Disulfiram 10.00 μM) was 37.2% and the soluble in alcohol ([3]; alcohol) was “about 3.8 mg/100 mL”. The soluble in water ([3]; water) was “about 20 mg/100 mL”.
